Experimental data published in EP4772505A1, “COMPOUND FOR DEGRADING ANDROGEN RECEPTOR AND MEDICAL USE THEREOF” (Ubix Therapeutics, Inc., priority 2023, dated 2025).
Like-named read-outs stand apart in the source and are kept apart here.

Biological target: T1, Androgen Receptor (AR) (Homo sapiens, UniProt P10275)
T1 sequence (P10275 1-920): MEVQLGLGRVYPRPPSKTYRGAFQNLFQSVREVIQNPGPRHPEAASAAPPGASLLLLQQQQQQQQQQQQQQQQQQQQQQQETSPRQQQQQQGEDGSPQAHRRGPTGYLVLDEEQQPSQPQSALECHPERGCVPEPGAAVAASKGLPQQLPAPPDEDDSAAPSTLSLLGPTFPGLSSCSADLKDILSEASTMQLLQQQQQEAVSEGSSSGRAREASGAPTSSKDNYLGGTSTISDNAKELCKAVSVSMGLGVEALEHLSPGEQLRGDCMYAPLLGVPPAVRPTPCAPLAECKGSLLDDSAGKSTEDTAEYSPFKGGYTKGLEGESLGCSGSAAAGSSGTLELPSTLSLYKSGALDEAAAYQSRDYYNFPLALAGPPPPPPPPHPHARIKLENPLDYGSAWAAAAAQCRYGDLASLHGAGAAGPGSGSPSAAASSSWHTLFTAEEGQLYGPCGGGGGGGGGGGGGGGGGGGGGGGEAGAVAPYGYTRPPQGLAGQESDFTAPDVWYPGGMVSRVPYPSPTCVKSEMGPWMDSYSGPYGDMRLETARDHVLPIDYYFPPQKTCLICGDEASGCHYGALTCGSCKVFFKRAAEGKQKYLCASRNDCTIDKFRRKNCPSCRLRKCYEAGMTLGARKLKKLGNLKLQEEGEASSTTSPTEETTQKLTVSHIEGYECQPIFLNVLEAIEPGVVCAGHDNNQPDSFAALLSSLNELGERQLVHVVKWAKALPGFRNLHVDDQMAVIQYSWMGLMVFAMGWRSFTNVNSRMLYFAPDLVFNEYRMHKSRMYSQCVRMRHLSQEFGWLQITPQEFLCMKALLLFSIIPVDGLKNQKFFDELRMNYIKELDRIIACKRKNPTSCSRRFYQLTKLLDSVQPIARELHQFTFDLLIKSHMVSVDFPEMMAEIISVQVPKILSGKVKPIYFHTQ
Experiment: Measurement of AR protein degradation in VCaP cells by Western blotting
Format: cell-based
Set-up: endogenous in cells; host or cells: VCaP
Details: for Dmax at 0.01 µM / Dmax at 0.1 µM: read-out: AR degradation in VCaP cells (%); for Dmax: read-out: AR degradation in VCaP cells Dmax (%); for DC50: read-out: AR degradation in VCaP cells DC50
Procedure: The amount of AR protein present in LNCaP or VCaP cells was measured after treating them with the synthesized compound. The amount of AR protein was measured using Western blotting. The protocol for the experiments using LNCaP or VCaP cells was as follows.
[Culture] LNCaP cells were resuspended in RPMI1640 medium + HEPES (Hyclone, SH30255.01), 10% FBS (Hyclone, SV30207.02), and 1% Penicillin-streptomycin (Welgene, LS 202-02). 3 x 10^5 cells/mL were seeded in 12-well plates (1 mL per well) and cultured for 3 days. VCaP cells were resuspended in IMDM MEDIUM (Hyclone, SH30228.01), 20% FBS (Hyclone, SV30207.02), and 1% Penicillin-streptomycin (Welgene, LS 202-02), seeded at 9 x 10^5/mL in 1 mL per 12-well plate, and cultured for 3 days.
[Compound Treatment] 10 µL of 100x stock (e.g., 0.1, 1, 10 µM) compound solution at the final compound treatment concentration (e.g., 0.001, 0.01, 0.1 µM) was added to each well in 1 mL media, and cells were harvested after 20 hours. For DC50 measurement, 100x stock (0.01, 0.1, 1, 10, 100, 1000 µM) compound solutions at the final compound treatment concentration (0.0001, 0.001, 0.01, 0.1, 1, 10 µM) were used.
[Cell lysis] The cell pellet was suspended using 1% SDS lysis buffer (50 mM Tris, 1 mM EDTA, 1% SDS, pH 8.0, 0.5 mM PMSF, 1x Protease/Phosphatase inhibitor Cocktail (Cell Signaling Technology, 5872S)), and sonication (70% AMP, 10 cycles (30 sec ON/59 sec OFF)) was performed. After centrifugation at 4°C and 20,000 g for 20 minutes, the cell lysate was obtained and transferred to a new tube.
[Protein Quantification] A BCA protein assay (SMART™ BCA Protein Assay Kit, iNtRON Biotechnology, 21071) was performed using a 96-well microplate. 5 µL of cell lysate and 5 µL of 1% SDS lysis buffer were added to each well of the 96-well plate, followed by an additional 200 µL of BCA reagent (Reagent A: Reagent B = 50:1). The wells were incubated at 37°C for 30 minutes and cooled to room temperature for 10 minutes. After shaking for 10 seconds, the absorbance was measured at a wavelength of 562 nm. The unknown protein concentration was determined using a BSA standard curve (0, 0.125, 0.25, 0.5, 1, 2 mg/mL). Western blotting samples were prepared by mixing cell lysate, 1% SDS lysis buffer, 4x NuPAGE™ LDS Sample buffer (Invitrogen, NP0008), and 10X NuPAGE™ Sample Reducing Agent (Invitrogen, NP0009) and boiling at 70°C for 10 minutes.
[Electrophoresis] 10 µg of protein sample was loaded into each well of a NuPAGE™ 4 to 12%, Bis-Tris, 1.0 mm Mini Protein Gel, 15-well, 17-well, or 26-well (Invitrogen, NP0323BOX, NP0329BOX, or WG1403BOX) and electrophoresed for 40 minutes using NuPAGE™MES SDS Running Buffer (Invitrogen, NP0002) at 200 V (constant V).
[Transfer] Transfer was performed for 15 or 18 minutes using the electrophoresed gel and the Trans-Blot® Turbo™ Transfer Starter System (Bio-RAD, #17001918, Mini Nitrocellulose) at 1.3 A (constant A) and 25 V (limit V). To confirm protein transfer, 15 mL of Ponceau S solution (Sigma, P7170-1L) was used to stain for 1 minute, and then washed to check the degree of transfer.
[Blocking] The membrane for AR and GAPDH detection was blocked with 5% skim milk/0.2% TBST (Skim milk: BD, 232100/ 20X TBS: Biosesang, TR2008-100-00/ 10% Tween 20 Solution: Bio-RAD, #161-0781) for 45 minutes.
[Antibodies and Detection] Primary AR antibody (Androgen Receptor: CST, 5153S) was mixed with 5% skim milk/0.2% TBST at a ratio of 1:1,000 and reacted at room temperature for 3 hours or at 4°C overnight. Primary GAPDH antibody (CST, 2118S) was mixed with 5% skim milk/0.2% TBST at a ratio of 1:2,000 and reacted at room temperature for 3 hours or at 4°C overnight. Afterwards, TBST (0.2% Tween 20) was used for washing three times every 5 minutes. Secondary antibody to AR antibody, Anti-rabbit IgG, HRP-linked Antibody (CST, 7074S), was mixed with 5% skim milk/0.2% TBST at a ratio of 1:5,000 and reacted at room temperature for 45 minutes. […]

Structure (SMILES) | Dmax at 0.01 µM (VCaP, 20 h) [%] | Dmax at 0.1 µM (VCaP, 20 h) [%] | Dmax (VCaP) [%] | DC50 (VCaP cells, 20 hours) [nM] | Dmax at 0.01 µM (10 nM compound, 20 hours, VCaP cells) [%] | Dmax at 0.1 µM (100 nM compound, 20 hours, VCaP cells) [%]
N#Cc1ccc(N2CCC(C(=O)Nc3ccc(OC4CCN(CC5CCN(c6ccc(NC7CCC(=O)NC7=O)cc6F)CC5)CC4)cn3)CC2)cc1C(F)(F)F (stereo not drawn) [Example 1, 1-(4-cyano-3-(trifluoromethyl)phenyl)-N-(5-((1-((1-(4-((2,6-dioxopiperidin-3-yl)amino)-2-fluorophenyl)piperidin-4-yl)methyl)piperidin-4-yl)oxy)pyridin-2-yl)piperidine-4-carboxamide] | 89 | 99 | – | – | – | –
N#Cc1ccc(N2CCC(C(=O)Nc3ccc(OC4CCN(CC5CCN(c6ccc(N[C@H]7CCC(=O)NC7=O)cc6F)CC5)CC4)cn3)CC2)cc1C(F)(F)F [Example 2, (S)-1-(4-cyano-3-(trifluoromethyl)phenyl)-N-(5-((1-((1-(4-((2,6-dioxopiperidin-3-yl)amino)-2-fluorophenyl)piperidin-4-yl)methyl)piperidin-4-yl)oxy)pyridin-2-yl)piperidine-4-carboxamide] | 83 | 99 | 99 | 0.19 | – | –
N#Cc1ccc(N2CCC(C(=O)Nc3ccc(OC4CCN(CC5CCN(c6ccc(N[C@@H]7CCC(=O)NC7=O)cc6F)CC5)CC4)cn3)CC2)cc1C(F)(F)F [Example 3, (R)-1-(4-cyano-3-(trifluoromethyl)phenyl)-N-(5-((1-((1-(4-((2,6-dioxopiperidin-3-yl)amino)-2-fluorophenyl)piperidin-4-yl)methyl)piperidin-4-yl)oxy)pyridin-2-yl)piperidine-4-carboxamide] | 72 | 96 | – | – | – | –
N#Cc1ccc(N2CCC(C(=O)Nc3ccc(OC4CCN(CC5CCN(c6ccc(NC7CCC(=O)NC7=O)cc6F)CC5)CC4)nn3)CC2)cc1C(F)(F)F (stereo not drawn) [Example 7, 1-(4-cyano-3-(trifluoromethyl)phenyl)-N-(6-((1-((1-(4-((2,6-dioxopiperidin-3-yl)amino)-2-fluorophenyl)piperidin-4-yl)methyl)piperidin-4-yl)oxy)pyridazin-3-yl)piperidine-4-carboxamide] | 94 | 100 | – | – | – | –
N#Cc1ccc(N2CCC(C(=O)Nc3ccc(OC4CCN(CC5CCN(c6ccc(NC7CCC(=O)NC7=O)cc6F)CC5)CC4)cn3)CC2)cc1Cl (stereo not drawn) [Example 8, 1-(3-chloro-4-cyanophenyl)-N-(5-((1-((1-(4-((2,6-dioxopiperidin-3-yl)amino)-2-fluorophenyl)piperidin-4-yl)methyl)piperidin-4-yl)oxy)pyridin-2-yl)piperidine-4-carboxamide] | 94 | 99 | – | – | – | –
N#Cc1ccc(N2CCC(C(=O)Nc3ccc(OC4CCN(CC5CCN(c6ccc(N[C@H]7CCC(=O)NC7=O)cc6F)CC5)CC4)cn3)CC2)cc1Cl [Example 9, (S)-1-(3-chloro-4-cyanophenyl)-N-(5-((1-((1-(4-((2,6-dioxopiperidin-3-yl)amino)-2-fluorophenyl)piperidin-4-yl)methyl)piperidin-4-yl)oxy)pyridin-2-yl)piperidine-4-carboxamide] | 94 | 99 | 99 | 0.1 | – | –
N#Cc1ccc(N2CCC(C(=O)Nc3ccc(OC4CCN(CC5CCN(c6ccc(N[C@@H]7CCC(=O)NC7=O)cc6F)CC5)CC4)cn3)CC2)cc1Cl [Example 10, (R)-1-(3-chloro-4-cyanophenyl)-N-(5-((1-((1-(4-((2,6-dioxopiperidin-3-yl)amino)-2-fluorophenyl)piperidin-4-yl)methyl)piperidin-4-yl)oxy)pyridin-2-yl)piperidine-4-carboxamide] | 85 | 99 | – | – | – | –
N#Cc1ccc(N2CCC(C(=O)Nc3ccc(OC4CCN(CC5CCN(c6ccc(NC7CCC(=O)NC7=O)cc6F)CC5)CC4)cn3)CC2)c(F)c1Cl (stereo not drawn) [Example 12, 1-(3-chloro-4-cyano-2-fluorophenyl)-N-(5-((1-((1-(4-((2,6-dioxopiperidin-3-yl)amino)-2-fluorophenyl)piperidin-4-yl)methyl)piperidin-4-yl)oxy)pyridin-2-yl)piperidine-4-carboxamide] | 94 | 98 | – | – | – | –
COc1cc(N2CCC(C(=O)Nc3ccc(OC4CCN(CC5CCN(c6ccc(NC7CCC(=O)NC7=O)cc6F)CC5)CC4)cn3)CC2)ccc1C#N (stereo not drawn) [Example 13, 1-(4-cyano-3-methoxyphenyl)-N-(5-((1-((1-(4-((2,6-dioxopiperidin-3-yl)amino)-2-fluorophenyl)piperidin-4-yl)methyl)piperidin-4-yl)oxy)pyridin-2-yl)piperidine-4-carboxamide] | – | – | – | – | 95 | 100
N#Cc1ccc(N2CCC(C(=O)Nc3ccc(OC4CCN(CC5CCN(c6ccc(NC7CCC(=O)NC7=O)cc6F)CC5)CC4)nn3)CC2)c(F)c1Cl (stereo not drawn) [Example 15, 1-(3-chloro-4-cyano-2-fluorophenyl)-N-(6-((1-((1-(4-((2,6-dioxopiperidin-3-yl)amino)-2-fluorophenyl)piperidin-4-yl)methyl)piperidin-4-yl)oxy)pyridazin-3-yl)piperidine-4-carboxamide] | 98 | 100 | – | – | – | –
